From PubChem BioAssay (NCI)
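48-hour exposure; five concentrations; linearly interpolated endpoints. TGI: concentration producing complete growth inhibition.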

What was measured:
Experiment in all cases: inhibition of tumour cell growth, NCI panel, 48 h
CCRF-CEM leukemia = test system: CCRF-CEM leukemia
UO-31 renal = test system: UO-31 renal
UACC-257 melanoma = test system: UACC-257 melanoma
U251 CNS = test system: U251 CNS
BT-549 breast = test system: BT-549 breast
OVCAR-3 ovarian = test system: OVCAR-3 ovarian
NCI-H226 lung = test system: NCI-H226 lung
RPMI-8226 leukemia = test system: RPMI-8226 leukemia
SW-620 colon = test system: SW-620 colon
TK-10 renal = test system: TK-10 renal
MCF7 breast = test system: MCF7 breast
HCT-116 colon = test system: HCT-116 colon
RXF 393 renal = test system: RXF 393 renal
A549 NSCLC = test system: A549 NSCLC
OVCAR-8 ovarian = test system: OVCAR-8 ovarian
SK-OV-3 ovarian = test system: SK-OV-3 ovarian
EKVX NSCLC = test system: EKVX NSCLC
SF-295 CNS = test system: SF-295 CNS
K-562 leukemia = test system: K-562 leukemia
HCT-15 colon = test system: HCT-15 colon
SK-MEL-5 melanoma = test system: SK-MEL-5 melanoma
MOLT-4 leukemia = test system: MOLT-4 leukemia
HOP-62 NSCLC = test system: HOP-62 NSCLC
DU-145 prostate = test system: DU-145 prostate
M14 melanoma = test system: M14 melanoma
ACHN renal = test system: ACHN renal
SN12C renal = test system: SN12C renal
KM12 colon = test system: KM12 colon
OVCAR-5 ovarian = test system: OVCAR-5 ovarian
SK-MEL-28 melanoma = test system: SK-MEL-28 melanoma
SK-MEL-2 melanoma = test system: SK-MEL-2 melanoma
786-0 renal = test system: 786-0 renal
MDA-MB-231 breast = test system: MDA-MB-231 breast
SNB-19 CNS = test system: SNB-19 CNS
LOX IMVI melanoma = test system: LOX IMVI melanoma
HL-60(TB) leukemia = test system: HL-60(TB) leukemia
OVCAR-4 ovarian = test system: OVCAR-4 ovarian
MALME-3M melanoma = test system: MALME-3M melanoma
NCI/ADR-RES ovarian = test system: NCI/ADR-RES ovarian
HT29 colon = test system: HT29 colon
SNB-75 CNS = test system: SNB-75 CNS
PC-3 prostate = test system: PC-3 prostate
MDA-MB-435 = test system: MDA-MB-435
HCC-2998 colon = test system: HCC-2998 colon
T-47D breast = test system: T-47D breast
IGROV1 ovarian = test system: IGROV1 ovarian
CAKI-1 renal = test system: CAKI-1 renal
NCI-H522 lung = test system: NCI-H522 lung
COLO 205 colon = test system: COLO 205 colon
MDA-N = test system: MDA-N
NCI-H23 lung = test system: NCI-H23 lung
SF-268 CNS = test system: SF-268 CNS
SR leukemia = test system: SR leukemia
HS 578T breast = test system: HS 578T breast
NCI-H460 lung = test system: NCI-H460 lung
SF-539 CNS = test system: SF-539 CNS
A498 renal = test system: A498 renal
HOP-92 NSCLC = test system: HOP-92 NSCLC

Work on `C[C@]12CC[C@H]3[C@@H](CCC4=C/C(=N/OCCN5CCCCC5)CC[C@@]43C)[C@@H]1CC[C@@H]2O` yielded a TGI (CCRF-CEM leukemia) of 26.9 µM, a TGI (UO-31 renal) of 24.7 µM and a TGI (UACC-257 melanoma) of 37.3 µM. It also gave a TGI (U251 CNS) of 27.1 µM, a TGI (BT-549 breast) of 36 µM and a TGI (OVCAR-3 ovarian) of 32 µM. It also gave a TGI (NCI-H226 lung) of 48.4 µM, a TGI (RPMI-8226 leukemia) of 24.9 µM and a TGI (SW-620 colon) of 32.7 µM. The TGI (TK-10 renal) was 35 µM, the TGI (MCF7 breast) was 26.8 µM and the TGI (HCT-116 colon) was greater than 100 µM. For the same compound, the TGI (RXF 393 renal) was 40.8 µM, the TGI (A549 NSCLC) was 34.5 µM and the TGI (OVCAR-8 ovarian) was greater than 100 µM. The TGI (SK-OV-3 ovarian) was 30.3 µM, the TGI (EKVX NSCLC) was greater than 100 µM and the TGI (SF-295 CNS) was 29.3 µM. It also gave a TGI (K-562 leukemia) of 7.25 µM, a TGI (HCT-15 colon) of 21.2 µM and a TGI (SK-MEL-5 melanoma) of 26.4 µM. For the same compound, the TGI (MOLT-4 leukemia) was 20.9 µM, the TGI (HOP-62 NSCLC) was 29.1 µM and the TGI (DU-145 prostate) was 63.5 µM. For the same compound, the TGI (M14 melanoma) was 23.8 µM, the TGI (ACHN renal) was 51.6 µM and the TGI (SN12C renal) was 38.2 µM. It also gave a TGI (KM12 colon) of 21.8 µM, a TGI (OVCAR-5 ovarian) of 40.7 µM and a TGI (SK-MEL-28 melanoma) of 28 µM. The TGI (SK-MEL-2 melanoma) was 29.8 µM, the TGI (786-0 renal) was greater than 100 µM and the TGI (MDA-MB-231 breast) was 50.6 µM. It also gave a TGI (SNB-19 CNS) of 18.5 µM, a TGI (LOX IMVI melanoma) of 57.3 µM and a TGI (HL-60(TB) leukemia) of 8.05 µM. For the same compound, the TGI (OVCAR-4 ovarian) was 58.9 µM, the TGI (MALME-3M melanoma) was 33.7 µM and the TGI (NCI/ADR-RES ovarian) was 54.4 µM. The TGI (HT29 colon) was 15.2 µM, the TGI (SNB-75 CNS) was 22.4 µM and the TGI (PC-3 prostate) was 45.6 µM. For the same compound, the TGI (MDA-MB-435) was 20.2 µM, the TGI (HCC-2998 colon) was 27.4 µM and the TGI (T-47D breast) was greater than 100 µM. It also gave a TGI (IGROV1 ovarian) greater than 100 µM, a TGI (CAKI-1 renal) of 55.3 µM and a TGI (NCI-H522 lung) of 36.1 µM. The TGI (COLO 205 colon) was 47.3 µM, the TGI (MDA-N) was 34.5 µM and the TGI (NCI-H23 lung) was 30.4 µM.
`COc1ccc(C=C2C(C)=NN(c3cccc(Cl)c3)C23C(Cl)C(=O)N3c2nc3ccccc3s2)cc1` (configuration not stated) was tested, and the TGI (CCRF-CEM leukemia) was 30.5 µM, the TGI (UO-31 renal) was 33.4 µM and the TGI (UACC-257 melanoma) was 72.3 µM. The TGI (U251 CNS) was 40.9 µM, the TGI (OVCAR-3 ovarian) was 42.9 µM and the TGI (NCI-H226 lung) was 79.1 µM. It also gave a TGI (RPMI-8226 leukemia) greater than 100 µM, a TGI (SW-620 colon) of 20.7 µM and a TGI (TK-10 renal) greater than 100 µM. It also gave a TGI (MCF7 breast) of 61.4 µM, a TGI (HCT-116 colon) of 28.8 µM and a TGI (RXF 393 renal) of 28 µM. It also gave a TGI (OVCAR-8 ovarian) of 42 µM, a TGI (SK-OV-3 ovarian) of 89.7 µM and a TGI (EKVX NSCLC) greater than 100 µM. It also gave a TGI (SF-295 CNS) of 50.9 µM, a TGI (K-562 leukemia) greater than 100 µM and a TGI (HCT-15 colon) of 37.1 µM. For the same compound, the TGI (SK-MEL-5 melanoma) was 32.9 µM, the TGI (MOLT-4 leukemia) was 68 µM and the TGI (HOP-62 NSCLC) was 44.4 µM. It also gave a TGI (DU-145 prostate) of 33 µM, a TGI (M14 melanoma) of 44.5 µM and a TGI (ACHN renal) of 51.6 µM. It also gave a TGI (KM12 colon) of 34.8 µM, a TGI (OVCAR-5 ovarian) of 37.6 µM and a TGI (SK-MEL-28 melanoma) of 23.9 µM. For the same compound, the TGI (SK-MEL-2 melanoma) was 38.9 µM, the TGI (SF-268 CNS) was 78.3 µM and the TGI (786-0 renal) was 29.4 µM. For the same compound, the TGI (MDA-MB-231 breast) was 51.5 µM, the TGI (LOX IMVI melanoma) was 38.5 µM and the TGI (SR leukemia) was 85.7 µM. For the same compound, the TGI (HS 578T breast) was 74.1 µM, the TGI (HL-60(TB) leukemia) was 6.62 µM and the TGI (OVCAR-4 ovarian) was 93.5 µM. The TGI (NCI/ADR-RES ovarian) was 85.7 µM, the TGI (HT29 colon) was 24.4 µM and the TGI (PC-3 prostate) was 39.3 µM. The TGI (MDA-MB-435) was 66.8 µM, the TGI (HCC-2998 colon) was 7.42 µM and the TGI (T-47D breast) was greater than 100 µM. The TGI (NCI-H460 lung) was 66.6 µM, the TGI (IGROV1 ovarian) was 40.1 µM and the TGI (CAKI-1 renal) was 61 µM. It also gave a TGI (NCI-H522 lung) of 22 µM, a TGI (SF-539 CNS) greater than 100 µM and a TGI (A498 renal) of 34.8 µM. The TGI (MDA-N) was 44.6 µM, the TGI (HOP-92 NSCLC) was 24.6 µM and the TGI (NCI-H23 lung) was 36 µM.
